Results taken from patent US20240100021A1, “Combination Therapy Schedules to Treat Cancer” (priority 2021, published 2024).
Where two headings read alike, the source gives them in different places.

Assays:
OCI-AML3 cells = assay: MTT cell proliferation assay; assay type: cell-based; details: continuous exposure 48 hrs, 0.038 μM Bis, 0.26 μM Ara-C, 0.3 μM ABT199, 14 nM Clad, alone or combined, versus control cells
MOLM14 cells = assay: MTT cell proliferation assay; assay type: cell-based; details: 48 hrs, 0.038 μM Bis, 0.45 uM Ara-C, 6.3 nM ABT199, alone or combined, versus control
[1] = animals; cited from earlier work
[2] = tested on: tumor-cytostatic macrophages; details: activation of tumor-cytostatic macrophages (Wang et al. 1984); cited from earlier work
double-stranded DNA = details: physiological conditions; cited from earlier work
[3] = cited from earlier work
[4] = cited from earlier work; remark: listed apart in the source
[5] = cited from earlier work; remark: listed apart in the source
[6] = patients receiving the drug (Myers et al. 1984); cited from earlier work
[7] = tested on: PARP1 and caspase 3 cleavage in MOLM14 cells; assay: Western blot of apoptosis markers; assay type: cell-based; details: 48 hrs
[8] = cancer patients, cited from earlier work
[9] = cited from earlier work; remark: listed apart in the source
[10] = cited from earlier work; remark: listed apart in the source
[11] = cited from earlier work; remark: listed apart in the source
[12] = predominantly to albumin; cited from earlier work
[13] = isolated human hepatocytes, in vitro; cited from earlier work
[14] = 90 min infusion, 260 mg/m^2, biphasic elimination
[15] = 5 day schedule of 60 min infusions
[16] = three phases of elimination (Alberts et al. 1983)
[17] = trial with doses of 80-250 mg/m^2
[18] = triphasic elimination, first of three single dose studies
[19] = triphasic elimination, last of three single dose studies
[20] = triphasic elimination, second of three single dose studies
[21] = hairy cell leukemia, 0.09 mg/kg/day continuous intravenous infusion over 7 days
[22] = pediatric ALL or AML, 52 mg/m^2, noncompartmental analysis

## C(=N\NC1=NCCN1)/c1c2ccccc2c(/C=N/NC2=NCCN2)c2ccccc12.Cl.Cl [Bis, 9,10-anthracenedicarboxaldehyde bis[(4,5-dihydro-1H-imidazol-2-yl)hydrazine] dihydrochloride]
OCI-AML3 cells
  cell proliferation: 80%
MOLM14 cells
  cell proliferation: 79%
[1]
  cardiotoxicity: not cardiotoxic
[2]
  minimal effective in vivo dose: 25 mg/kg
double-stranded DNA
  affinity constants: above 10^6 M^−1
[3]; 72-hr infusion study, dose 56 mg/m^2
  plasma concentration: 0.012 ± 0.006 µg/mL
[3]; 72-hr infusion study, dose 260 mg/m^2
  plasma concentration: 0.055 ± 0.008 µg/mL
[3]; 72-hr infusion study
  plasma clearance: 1306±179 ml/min/m^2
[3]; 72-hr infusion study, in 24 hr
  urinary excretion of the dose: 4.6%
[3]; 90 min infusion, 260 mg/m^2, after 24 hr
  administered dose excreted unchanged in the urine: 11.3%
[3]; [14]
  initial half-life: 1.08 ± 0.25 h
  terminal half-life: 19.03 ± 3.77 h
[3]; 90 min infusion, 260 mg/m^2
  plasma clearance: 735 ml/min/m^2
  steady state volume of distribution (Vdss): 1845 L/m^2
[3]; [15]
  dose excreted in the urine: 7.1%
  t½ α: 0.9 h
  t½ β: 9.7 h
[3]; human, in vivo
  dose excreted in the urine: Less than 7%
[3]; intravenous dose 260 mg/m^2
  area under the plasma concentration x time curve: 4400 µg·h/mL
[3]; intravenous dose 340 mg/m^2
  area under the plasma concentration x time curve: 5700 µg·h/mL
[3]; one report, interpreted as tissue sequestration
  volume of distribution: 687 L/m^2
[3]; [16]
  beta phase of elimination: approximately 1.5 hours
  initial distributive phase of elimination: 6 min
[3]; trial with doses of 80-250 mg/m^2, after 96 hr
  administered dose found in the urine: 3.4±1.1%
[3]; [17]
  calculated volume of distribution: 42.1 ± 5.9 L/kg
  clearance: 1.0455 ± 0.051 L/h/kg
  initial half-life: 0.6 h
  terminal half-life: 24.7 h
[3]; [18]
  t½ α: 0.0573 h
  t½ β: 1.33 h
  t½ γ: 26.13 h
[3]; [19]
  t½ α: 0.1 h
  t½ β: 1.9 h
  t½ γ: 43.9 h
[3]; [20]
  t½ α: 0.05 h
  t½ β: 1 h
  t½ γ: 8 h
[4]
  bound to plasma proteins: More than 95%
[5]; daily×5, repeat every 4 weeks (Spiegel et al. 1982)
  maximally tolerated dose: 80 mg/m^2
[5]; monthly (every 3-4 week) (Von Hoff et al., 1981b)
  maximally tolerated dose: 260 mg/m^2
[5]; monthly, patients with poor bone marrow reserve (Von Hoff et al., 1981b)
  maximally tolerated dose: 240 mg/m^2
[5]; weekly×3 (Alberts et al. 1982)
  maximally tolerated dose: 200 mg/m^2
[5]; weekly×3, patients with poor bone marrow reserve (Alberts et al. 1982)
  maximally tolerated dose: 150 mg/mg^2
[5]; weekly×3, repeat every 4-5 week (B.-S. Yap et al. 1982)
  maximally tolerated dose: 150 mg/m^2
[6]
  ejection fraction, radioangiocardiographic monitoring: no decrease in ejection fraction
  electrocardiographic changes: No patients experienced electrocardiographic changes

## ABT199
OCI-AML3 cells
  cell proliferation: 79%
MOLM14 cells
  cell proliferation: 77%
[7]
  cleavage of PARP1 and caspase 3: caused cleavage of PARP1

## Nc1nc(F)nc2c1ncn2[C@@H]1O[C@H](CO)[C@@H](O)[C@@H]1O [2-fluoro-ara-A]
[8]; 5-day treatment schedule, 25 mg 2-fluoro-ara-AMP/m^2 daily over 30 minutes
  factor of increase of plasma trough levels: about 2
[8]
  terminal half-life: approximately 20 hours

## Nc1nc(Cl)nc2c1ncn2[C@H]1C[C@H](O)[C@@H](CO)O1 [Clad, 2-chloro-6-amino-9-(2-deoxy-β-D-erythropentofuranosyl) purine]
OCI-AML3 cells
  cell proliferation: 87%
[9]; 2 hour infusion 0.12 mg/kg, normal renal function
  mean terminal half-life: 5.4 h
[9]; 2 hour infusion 0.12 mg/kg
  mean clearance: 0.978 ± 0.422 L/h/kg
  mean steady-state volume of distribution: 4.5 ± 2.8 L/kg
[9]; after intravenous administration, multi-exponential decline
  average half-life: 6.7 ± 2.5 h
[9]; [21]
  mean steady-state serum concentration: 5.7 ng/mL
  systemic clearance: 0.6635 L/h/kg
[9]; hematologic malignancies, 2 hour infusion 0.12 mg/kg
  mean end-of-infusion plasma concentration: 48 ± 19 ng/mL
[9]; human, in vivo
  apparent volume of distribution: approximately 9 L/kg
[9]; one report
  cerebrospinal fluid concentrations relative to plasma: approximately 25%

## Nc1ccn([C@@H]2O[C@H](CO)[C@@H](O)[C@@H]2O)c(=O)n1 [Ara-C, 1β-arabinofuranosylcytosine]
OCI-AML3 cells
  cell proliferation: 76%
MOLM14 cells
  cell proliferation: 89%
[10]; after the distributive phase
  plasma radioactivity accounted for by inactive metabolite ara-U: more than 80%
[10]; intravenous, biphasic elimination
  half-life of initial distributive phase: about 10 minutes
[10]; within 24 hours
  share of urinary radioactivity excreted as ara-U: approximately 90%

## Nc1nc(Cl)nc2c1ncn2[C@@H]1O[C@H](CO)[C@@H](O)[C@@H]1F [clofarabine, 2-Chloro-9-(2-deoxy-2-fluoro-beta-D-arabinofuranosyl)-9H-purin-6-amine]
[11]; 24-hour urine collections, pediatric studies
  dose excreted in the urine unchanged: 49-60%
[11]; [22]
  systemic clearance: 28.8 L/h/m^2
  volume of distribution at steady-state: 172 L/m^2
[11]; pediatric ALL or AML, 52 mg/m^2
  terminal half-life: 5.2 h
[12]
  bound to plasma proteins: 47%
[13]
  metabolism: 0.2%
